Values quoted from earlier work in US20080031860A1 (N.V. NUTRICIA, priority 2003, published 2008).

Experiments:
[1] = after 4 weeks of therapy
[2] = intake of 10-20 mg per day

## CCCCCc1cc(O)c2c(c1)OC(C)(C)[C@@H]1CCC(C)=C[C@@H]21 [dronabinol]
[1]
  appetite: significantly stimulates appetite

## calcium D-pantothenate
[2]
  reported adverse effect: diarrhea
